Test results: ChEMBL document CHEMBL1137244, “Ureas with histamine H3-antagonist receptor activity--a new scaffold discovered by lead-hopping from cinnamic acid amides” (Bioorg Med Chem Lett, 2006)

Experiments:
Histamine H3 receptor = Histamine H3 receptor (Homo sapiens, UniProt Q9Y5N1); experiment: Binding affinity at histamine H3 receptor by hH3-[35S]GTPgamma[S] binding assay; type: functional
Cytochrome P450 1A2 = target: T1, Cytochrome P450 1A2 (Homo sapiens, UniProt P05177)
T1 sequence (P05177 whole entry): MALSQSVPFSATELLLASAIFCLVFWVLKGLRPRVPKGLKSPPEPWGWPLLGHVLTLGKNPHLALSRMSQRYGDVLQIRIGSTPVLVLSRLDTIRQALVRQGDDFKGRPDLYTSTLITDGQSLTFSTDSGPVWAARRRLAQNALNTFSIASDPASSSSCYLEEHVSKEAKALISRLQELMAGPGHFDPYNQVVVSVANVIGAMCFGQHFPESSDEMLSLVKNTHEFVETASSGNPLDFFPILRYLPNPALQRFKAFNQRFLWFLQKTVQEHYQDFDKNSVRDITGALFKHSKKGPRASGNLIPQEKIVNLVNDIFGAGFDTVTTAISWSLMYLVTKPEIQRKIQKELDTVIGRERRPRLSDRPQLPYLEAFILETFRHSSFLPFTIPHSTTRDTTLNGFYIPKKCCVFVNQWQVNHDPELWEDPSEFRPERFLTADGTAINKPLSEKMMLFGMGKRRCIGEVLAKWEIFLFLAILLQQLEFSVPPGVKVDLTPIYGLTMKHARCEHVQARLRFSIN

hERG (KCNH2) = hERG (KCNH2) (Homo sapiens, UniProt Q12809); experiment: in vitro
Cytochrome P450 3A4 = Cytochrome P450 3A4 (Homo sapiens, UniProt P08684)
Cytochrome P450 2D6 = Cytochrome P450 2D6 (Homo sapiens, UniProt P10635)
[1] = HEK293 cells that express hERG, probe [3H]astemizole

Histamine H3 receptor, sequence (Q9Y5N1 whole entry): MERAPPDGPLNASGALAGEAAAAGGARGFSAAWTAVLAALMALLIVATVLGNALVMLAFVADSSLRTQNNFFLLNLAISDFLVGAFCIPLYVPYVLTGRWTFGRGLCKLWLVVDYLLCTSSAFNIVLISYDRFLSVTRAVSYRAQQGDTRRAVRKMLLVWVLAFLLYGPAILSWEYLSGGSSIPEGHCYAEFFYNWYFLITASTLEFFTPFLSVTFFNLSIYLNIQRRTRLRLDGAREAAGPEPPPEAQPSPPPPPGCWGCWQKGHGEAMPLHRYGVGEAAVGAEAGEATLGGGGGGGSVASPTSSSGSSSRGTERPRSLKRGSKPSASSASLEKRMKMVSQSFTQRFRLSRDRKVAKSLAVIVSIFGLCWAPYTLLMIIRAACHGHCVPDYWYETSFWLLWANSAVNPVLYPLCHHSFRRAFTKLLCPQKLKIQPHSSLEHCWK
Cytochrome P450 3A4, sequence (P08684 whole entry): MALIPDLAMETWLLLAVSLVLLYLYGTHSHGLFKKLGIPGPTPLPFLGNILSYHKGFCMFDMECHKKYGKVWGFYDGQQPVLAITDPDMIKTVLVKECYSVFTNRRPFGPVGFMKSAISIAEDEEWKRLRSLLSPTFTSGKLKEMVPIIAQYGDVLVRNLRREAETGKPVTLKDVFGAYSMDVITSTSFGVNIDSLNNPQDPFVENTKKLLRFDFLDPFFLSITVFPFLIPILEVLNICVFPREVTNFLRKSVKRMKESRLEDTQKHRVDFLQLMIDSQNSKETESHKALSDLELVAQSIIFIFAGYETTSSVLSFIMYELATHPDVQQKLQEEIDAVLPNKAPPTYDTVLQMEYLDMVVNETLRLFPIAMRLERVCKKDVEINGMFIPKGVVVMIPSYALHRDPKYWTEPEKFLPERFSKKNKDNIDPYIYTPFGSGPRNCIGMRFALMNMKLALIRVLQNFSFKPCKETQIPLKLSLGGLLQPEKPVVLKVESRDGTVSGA
Cytochrome P450 2D6, sequence (P10635 whole entry): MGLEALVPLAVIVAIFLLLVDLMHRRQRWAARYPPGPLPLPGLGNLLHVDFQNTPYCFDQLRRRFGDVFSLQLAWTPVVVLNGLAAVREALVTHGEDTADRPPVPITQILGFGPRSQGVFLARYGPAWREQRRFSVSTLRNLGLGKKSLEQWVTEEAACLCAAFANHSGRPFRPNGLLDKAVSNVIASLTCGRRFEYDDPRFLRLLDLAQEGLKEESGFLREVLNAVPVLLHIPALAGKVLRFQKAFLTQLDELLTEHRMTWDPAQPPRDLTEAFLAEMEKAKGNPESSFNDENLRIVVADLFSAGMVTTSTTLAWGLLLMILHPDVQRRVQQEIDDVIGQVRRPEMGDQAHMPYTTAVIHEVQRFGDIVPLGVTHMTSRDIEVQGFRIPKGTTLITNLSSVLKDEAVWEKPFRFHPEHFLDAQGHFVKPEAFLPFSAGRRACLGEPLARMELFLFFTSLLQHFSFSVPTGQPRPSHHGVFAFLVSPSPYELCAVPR
hERG (KCNH2), sequence (Q12809 whole entry): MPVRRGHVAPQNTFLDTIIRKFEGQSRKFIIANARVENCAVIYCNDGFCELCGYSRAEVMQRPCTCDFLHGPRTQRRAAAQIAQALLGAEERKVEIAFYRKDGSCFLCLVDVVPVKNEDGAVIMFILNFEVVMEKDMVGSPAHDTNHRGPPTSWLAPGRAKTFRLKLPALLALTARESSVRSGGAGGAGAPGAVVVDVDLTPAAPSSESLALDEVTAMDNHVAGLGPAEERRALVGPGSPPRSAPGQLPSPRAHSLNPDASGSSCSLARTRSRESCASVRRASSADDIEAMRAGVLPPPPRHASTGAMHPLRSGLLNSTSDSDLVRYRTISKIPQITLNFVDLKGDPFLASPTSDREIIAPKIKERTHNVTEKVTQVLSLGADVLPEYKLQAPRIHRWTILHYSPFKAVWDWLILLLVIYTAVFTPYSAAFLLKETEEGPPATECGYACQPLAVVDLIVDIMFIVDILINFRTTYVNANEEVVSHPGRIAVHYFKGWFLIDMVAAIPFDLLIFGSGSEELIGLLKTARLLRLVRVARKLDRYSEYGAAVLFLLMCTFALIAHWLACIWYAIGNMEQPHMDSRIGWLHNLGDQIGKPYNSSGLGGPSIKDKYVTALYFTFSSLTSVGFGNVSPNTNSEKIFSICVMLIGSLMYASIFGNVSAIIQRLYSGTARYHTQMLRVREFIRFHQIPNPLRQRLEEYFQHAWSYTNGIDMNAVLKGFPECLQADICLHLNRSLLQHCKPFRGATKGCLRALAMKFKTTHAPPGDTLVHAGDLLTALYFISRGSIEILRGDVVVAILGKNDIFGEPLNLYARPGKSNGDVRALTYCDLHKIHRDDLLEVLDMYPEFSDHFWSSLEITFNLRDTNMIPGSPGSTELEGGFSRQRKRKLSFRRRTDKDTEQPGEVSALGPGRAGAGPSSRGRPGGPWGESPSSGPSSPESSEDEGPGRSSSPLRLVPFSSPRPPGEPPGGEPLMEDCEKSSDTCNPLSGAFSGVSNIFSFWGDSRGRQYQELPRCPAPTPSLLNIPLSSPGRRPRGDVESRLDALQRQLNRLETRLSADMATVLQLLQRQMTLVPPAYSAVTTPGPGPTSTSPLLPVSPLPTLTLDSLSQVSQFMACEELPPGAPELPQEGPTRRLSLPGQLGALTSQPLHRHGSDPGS

| Compound | Ki (Histamine H3 receptor) | further results |
| --- | --- | --- |
| O=C(NCc1ccccc1)N1CCN(C2CCCC2)CC1 | 94 nM (antagonist) | – |
| CC(C)N1CCN(C(=O)N2CCC(NC(=O)C3CCCC3)CC2)CC1 | – | IC50 (Cytochrome P450 1A2): > 25000 nM; inhibition at 10 µM (hERG (KCNH2); hek293): 6%; IC50 (Cytochrome P450 3A4): > 25000 nM; IC50 (Cytochrome P450 2D6): 17000 nM |
| O=C(/C=C/c1ccc(OC(F)(F)F)cc1)N1CCC[C@H]1CN1CCCC1 | 13.4 nM (antagonist) | – |
| NCc1ccc(CNC(=O)N2CCC[C@H]2CN2CCCC2)cc1 | 109 nM (antagonist) | – |
| CC(C)N1CCN(C(=O)NC2Cc3ccccc3C2)CC1 | 30 nM (antagonist) | – |
| CN(Cc1ccc(-c2ccccc2)cc1)C(=O)N1CCC[C@H]1CN1CCCC1 | – | inhibition at 10 µM (hERG (KCNH2); [1]): 66% |
| CC(C)N1CCN(C(=O)N2CCC(C(=O)N3CC4CCC(CC4)C3)CC2)CC1 | – | IC50 (Cytochrome P450 1A2): > 25000 nM; inhibition at 10 µM (hERG (KCNH2); hek293): 8%; IC50 (Cytochrome P450 3A4): > 25000 nM; IC50 (Cytochrome P450 2D6): > 25000 nM |
| O=C(N1CCN(C2CC2)CC1)N1Cc2ccccc2C1 | – | inhibition at 10 µM (hERG (KCNH2); [1]): 16% |
| CC(C)N1CCN(C(=O)N2CCC(Cc3ccccc3)CC2)CC1 | – | inhibition at 10 µM (hERG (KCNH2); hek293): 21% |
| O=C(N1CCN(C2CCCC2)CC1)N1Cc2ccccc2C1 | – | inhibition at 10 µM (hERG (KCNH2); [1]): 45% |
| CC(C)N1CCN(C(=O)N2CCC(C(=O)OC(C)(C)C)CC2)CC1 | – | IC50 (Cytochrome P450 1A2): > 25000 nM; inhibition at 10 µM (hERG (KCNH2); [1]): 9%; IC50 (Cytochrome P450 3A4): > 25000 nM; IC50 (Cytochrome P450 2D6): > 25000 nM |
| O=C(NCC1CCCCC1)N1CCC[C@H]1CN1CCCC1 | 458 nM (antagonist) | – |
| O=C(/C=C/c1ccc(-c2ccccc2)cc1)N1CCC[C@H]1CN1CCCC1 | 3.7 nM (antagonist) | – |
| O=C(NCc1cccc(C(F)(F)F)c1)N1CCC[C@H]1CN1CCCC1 | 117 nM (antagonist) | – |
| CC(C)N1CCN(C(=O)N2CC=C(c3ccccc3)CC2)CC1 | – | inhibition at 10 µM (hERG (KCNH2); hek293): 31% |
| O=C(NC1Cc2ccccc2C1)N1CCN(C2CCCC2)CC1 | 29 nM (antagonist) | – |
| O=C(NCc1ccc(Oc2ccccc2)cc1)N1CCC[C@H]1CN1CCCC1 | 34 nM (antagonist) | – |
| CC(C)N1CCN(C(=O)NCc2ccc(Cl)c(Cl)c2)CC1 | 20 nM (antagonist) | – |
| COc1cc2c(cc1OC)CN(C(=O)N1CCN(C(C)C)CC1)CC2 | – | inhibition at 10 µM (hERG (KCNH2); [1]): 8% |
| O=C(N1Cc2ccccc2C1)N1CCC[C@H]1CN1CCCC1 | – | inhibition at 10 µM (hERG (KCNH2); [1]): 26% |
| O=C(/C=C/c1ccc(Cl)cc1)N1CCC[C@H]1CN1CCCC1 | 11.2 nM (antagonist) | – |
| O=C(NCc1ccc(OC(F)(F)F)cc1)N1CCC[C@H]1CN1CCCC1 | 121 nM (antagonist) | – |
| O=C(NC1Cc2ccccc2C1)N1CCC[C@H]1CN1CCCC1 | 52 nM (antagonist) | – |
| O=C(NCc1ccc(Cl)c(Cl)c1)N1CCC[C@H]1CN1CCCC1 | 47 nM (antagonist) | – |
| O=C(NCc1ccc(Cl)c(Cl)c1)N1CCN(C2CCCC2)CC1 | 15 nM (antagonist) | – |

Continued, in another order:

| Ki (Histamine H3 receptor) | Compound | further results |
| --- | --- | --- |
| 38 nM (antagonist) | O=C(NCc1ccc(Oc2ccccc2)cc1)N1CCN(C2CCCC2)CC1 | – |
| 37 nM (antagonist) | CC(C)N1CCN(C(=O)N(C)Cc2ccc(-c3ccccc3)cc2)CC1 | inhibition at 10 µM (hERG (KCNH2); [1]): 55% |
| 196 nM (antagonist) | O=C(NCc1ccccc1)N1CCC[C@H]1CN1CCCC1 | – |
| 165 nM (antagonist) | O=C(NCc1ccc(Cl)cc1)N1CCC[C@H]1CN1CCCC1 | – |
| 44 nM (antagonist) | CCN1CCN(C(=O)NC2Cc3ccccc3C2)CC1 | – |
| 34 nM (antagonist) | CC(C)N1CCN(C(=O)NCc2ccc(Oc3ccccc3)cc2)CC1 | – |
| 40 nM (antagonist) | CCN1CCN(C(=O)N[C@@H]2C[C@H]2c2ccccc2)CC1 | – |
| 188 nM (antagonist) | COc1cccc(CNC(=O)N2CCC[C@H]2CN2CCCC2)c1 | – |
| 226 nM (antagonist) | O=C(NCCc1ccccc1)N1CCC[C@H]1CN1CCCC1 | – |
| 78 nM (antagonist) | NCc1cccc(CNC(=O)N2CCC[C@H]2CN2CCCC2)c1 | – |
| 87 nM (antagonist) | O=C(NCc1ccc(-c2ccccc2)cc1)N1CCC[C@H]1CN1CCCC1 | – |
| 295 nM (antagonist) | COc1ccc(CNC(=O)N2CCC[C@H]2CN2CCCC2)cc1 | – |
